Data on one sequence can be found in patent publication US11413328B2, “Methods for treating inflammatory conditions of the lungs” (priority 2016, dated 2022).

Bridges are numbered along the chain shown (N, C = ends). Where no end group is shown, it is not given here.

Experiment [1] has as its system murine house dust mite/Freunds complete adjuvant driven model of allergic asthma. As to the kind of experiment: Lung histopathology (H&E/PAS), HDM asthma model (Example 3). Particulars: vs HDM challenged vehicle. In kind it is in vivo, BALB/c mice. The procedure: Treatment regime: Female 7-10 weeks old BALB/c mice randomly allocated into 4 study groups one day prior to study start were subcutaneously (SC) sensitized to house dust mite (100 μg HDM in 200 μL saline plus Freund's complete adjuvant in 0.9% saline). Mice were intranasally (IN) challenged with HDM on day 14 (HDM 25 μg in 50 μL of saline). hBD-2 was administered IN or orally (0.4 mg/kg TID IN; 0.4 mg/kg TID orally, 50 μL phosphate buffered saline) on day 14. The initial dose was administered 60 minutes prior to challenge, and the subsequent doses approximately 6 hours apart. […] Lungs from other 8 animals per group were inflated in situ with 10% buffered formalin, removed from thorax, placed individually in 10% buffered formalin, paraffin embedded in toto, sectioned and H&E/PAS stained. The paraffin blocks were retained for the IHC analysis. Cellular influx (mononuclears, eosinophils, neutrophils) was assessed semi-quantitatively on H&E stained slides separately for peri-bronchial/bronchiolar and perivascular space as follows: [table] Overall score for inflammation was calculated as sum of all individual scores.

The subject of experiment [2] is murine, infection induced, severe, steroid-insensitive, neutrophilic, allergic airways disease model of asthma. In words: Differential leucocyte counts in BALF, Ovalbumin/C. muridarum steroid-insensitive asthma model. Type of experiment: in vivo, BALB/c mice. As to conditions: Ova sensitized, C. muridarum infected mice, hBD-2 IN 5 mg/kg day 30, 32, 34. The procedure:
(§1) Female 6-8 weeks old BALB/c mice were intraperitoneally (IP) sensitized to ovalbumin 50 μg with the adjuvant alum 1 mg in 200 μL 0.9% saline. Mice were intranasally (IN) challenged with Ova on day 12-13 and day 33-34 (10 μg in 50 μL sterile saline).
Airway inflammation: Differential leucocyte counts were obtained from May-Grunwald Giemsa stained BALF cells, using a light microscope.

The test system is the same in experiment [3]. In words: Airway hyper-responsiveness (Flexivent), Ovalbumin/C. muridarum steroid-insensitive asthma model. In kind it is in vivo, BALB/c mice. Particulars: Ova sensitized, C. muridarum infected mice; hBD-2 IN 5 mg/kg day 30, 32, 34; DEX IN 2 mg/kg day 32-34; vs Saline control. The procedure:
as §1

For experiment [4], the system named is IL-4, IL-5, IL-8 (KC), IL-9 and IL-13 in lung tissue homogenates. In words: Cytokine ELISA in lung tissue homogenates, HDM asthma model (Example 3). In kind it is in vivo, BALB/c mice. On the procedure: Treatment regime: Female 7-10 weeks old BALB/c mice randomly allocated into 4 study groups one day prior to study start were subcutaneously (SC) sensitized to house dust mite (100 μg HDM in 200 μL saline plus Freund's complete adjuvant in 0.9% saline). Mice were intranasally (IN) challenged with HDM on day 14 (HDM 25 μg in 50 μL of saline). hBD-2 was administered IN or orally (0.4 mg/kg TID IN; 0.4 mg/kg TID orally, 50 μL phosphate buffered saline) on day 14. The initial dose was administered 60 minutes prior to challenge, and the subsequent doses approximately 6 hours apart.
Lung tissue sampling: Lungs were removed from the thorax, snap frozen in liquid nitrogen and stored frozen at −80 degrees Celsius until analysis of cytokine concentration of IL-4, IL-5, IL-8 (KC), IL-9 and IL-13 by ELISA.
The lungs were exposed and excised by gently opening the thorax and by cutting down either side of the sternum and ribs and trimming back. Lungs from first 6 animals per group were removed from thorax, snap frozen in liquid nitrogen and stored frozen at −80° C. until analysis of cytokine concentration by ELISA.
In general terms: ELISA stands for enzyme-linked immunosorbent assay.

Experiment [5] relates to microbiota of the intestine. As to the kind of experiment: 16S microbiota analysis, interventional defensin treatment in diet-induced obese mice (Example 11). Type of experiment: in vivo. As to conditions: intervention. An excerpt:
The experiment elucidates the effect of hBD2 and HD5 on the microbiota in diet-induced obese mice. A run-in period of 13 weeks where mice were fed a very HFD (60% energy from fat) preceded the intervention. Only mice meeting the criteria of a minimum of 12 gram weight gain (approximately 50% of initial bodyweight) during the run-in period were included in the final analyses. […] They were exposed to all experimental tests, but excluded from the analyses.
Before the intervention all mice were MR scanned. Cages of mice were allocated to experimental groups based on their fat mass. All subsequent measures were paired with data from the same mouse before the intervention. A LFD (low fat diet) reference group was running in parallel. As controls for the intervention 2 additional groups were included: 1 very HFD and 1 LFD. Experimental mice stayed on the very HFD during the intervention. The mice were on the experimental diet for 10 weeks. They were co-housed throughout the experiment, 4 mice per cage, 3 cages per group. All tests ran over 3 days, 1 cage per group per day.
Microbial analyses were carried out to study the microbiota of the intestine. Longitudinal 16S characterization was conducted on 4 paired samples from 60 mice, 240 samples in total. Each mouse was sampled prior to diet change, 1 week post diet change, 4 weeks post diet change and at termination, thus ensuring a thorough characterization of the faecal microbiota as a result of defensin treatment.

The subject of experiment [6] is murine house dust mite driven model of allergic asthma. In words: Lung resistance and compliance, prophylactic treatment in HDM asthma model (Example 9). In kind it is in vivo, BALB/c mice. The procedure:
Female 7-10 weeks old BALB/c mice were randomly allocated into 5 study groups one day prior to study start and subcutaneously (SC) sensitized to house dust mite (100 μg HDM in 200 μL saline plus Freund's complete adjuvant in 0.9% saline). The mice were treated with hBD-2 orally and intranasally respectively at a dose of 1.2 mg/kg/day (0.4 mg/kg TID) starting on day 12 in the morning and continued TID at approximately 6 hours intervals. The last dose was administered on day 14 one hour prior to challenge. The total number of doses were 8 doses or a total of […] hBD-2. Mice were then intranasally (IN) challenged with HDM on day 14 (HDM 25 μg in 50 μL of saline).
Lung function: Starting 48 hours after HDM challenge, measurements of lung resistance and lung compliance were carried out after methacholine challenge (3.125 MCH1; 6.25 MCH2; 12.5 MCH3 and 25 mg/mL MCH4) by anaesthetized, cannulated mice using DSI's Buxco Finepoint RC system. Data are represented as airway resistance at 10 mg/kg methacholine and as dose responsive curves.

Setting [7] is: prophylactic intranasal 0.4 mg/kg TID day 12 to day 14.
[8] abbreviates: prophylactic oral 0.4 mg/kg TID day 12 to day 14.

As for “GIGDPVTCLKSGAICHPVFCPRRYKQIGTCGLPGTKCCKKP (disulfide 8-37, 15-30, 20-38 (inferred)) [hBD-2, human beta defensin 2]”, in experiment [1] (intranasal 0.4 mg/kg TID day 14), the “increase in histological inflammation of lung tissue” value was “effectively inhibited”. Moreover, the “increase in histological inflammation of lung tissue” value in experiment [1] (oral 0.4 mg/kg TID day 14) is “effectively inhibited”. Further, in experiment [2], the “macrophages in BALF” value was “did not change” and the “neutrophil count in BALF” value is given as “complete normalization”. The “eosinophils in BALF” value in experiment [2] (DEX IN 2 mg/kg day 32-34) was “did not change”. Also, the “AHR (airway hyper-responsiveness)” value in experiment [3] is “completely normalized”. Also, in experiment [4] (intranasal 0.4 mg/kg TID), the “IL-4 level in lung tissue homogenates” value was “significant effects”, the “IL-5 level in lung tissue homogenates” value was “significant effects” and the “IL-9 level in lung tissue homogenates” value is recorded as “significant effects”. Also, in experiment [4] (oral 0.4 mg/kg TID), the “IL-4 level in lung tissue homogenates” value is “significant effects”, the “IL-5 level in lung tissue homogenates” value is “significant effects” and the “IL-9 level in lung tissue homogenates” value is on record as “significant effects”. In experiment [5] (HD5 p<0.02), the “abundance of Alloprevotella in the colon” value was “no influence”. Moreover, in experiment [5] (hBD2 p<0.0001), the “relative abundance of Bifidobacteriaceae in the small intestine” value is “dramatically and statistically significant increased”. Further, in experiment [5] (p<0.04), the “relative abundance of Bifidobacteriaceae in the colon” value is “dramatically and statistically significant increased”. Moreover, in experiment [6] (setting [7]), the “decrease of pulmonary compliance” value is reported as “inhibiting” and the “increase of airway resistance” value is on record as “inhibiting”. Further, in experiment [6] (setting [8]), the “decrease of pulmonary compliance” value is “inhibiting” and the “increase of airway resistance” value is given as “inhibiting”.
